The values that follow come from patent US20090136570A1, “Taste-Masked Tablets and Granules” (priority 2006, published 2009).

This series is described as follows: Hygroscopicity, VTI vapor sorption analyzer. Format: physicochemical. Here is the method: Hygroscopicity data was obtained on a VTI Symmetrical Vapor Sorption Analyzer Model SGA-1. Data was collected at room temperature from 5-95% relative humidity and back, 5% relative humidity change per step. Equilibrium conditions were 0.01 weight percent change in 5 minutes with a maximum equilibration time of 180 minutes. […] When equilibrated back down to 5% RH, the material returned back to approximately its dry weight.

For the compound `Cc1nnc(C(=O)NC(C)(C)c2nc(C(=O)NCc3ccc(F)cc3)c(O)c(=O)n2C)o1`, the “weight increase when equilibrated at 95% RH” value (95% RH at 25° C.) came out at 1.8%. Besides, the “XRPD analysis of the material after the hygroscopicity experiment (phase stability)” value (after 5-95% relative humidity cycle at room temperature) is “had not changed phases”.
